Publication PMC12084297, “Cytoplasmic connexin43-microtubule interactions promote glioblastoma stem-like cell maintenance and tumorigenicity” (Cell Death & Disease, 2025)

Experiments:
[1] = tested on: VTC-001 GSCs; assay: MTS viability, VTC-001 GSCs; format: cell-based, human; conditions: 4 days
Description: Cells were plated in 96-well plates (2000–5000 cells per well) and treated the following day with TMZ (10, 50, or 100 μM), antennapedia, JM2-scrambled, or JM2 (10, 50, or 100 μM). After 4 days, cell viability was monitored following addition of MTS reagent (Promega) according to manufacturer’s instructions. The absorbance at 490 nm was measured using a SpectraMax i3 or iD3 microplate reader (Molecular Devices). For the caspase 3/7 activity assay, cells were plated in 96-well plates (2000 cells per well) and treated with TMZ or peptides as described above. The activity of caspase 3/7 was measured after 48 h using the Caspase-Glo® 3/7 assay (Promega) following the manufacturer’s instructions. Fold change of caspase 3/7 activity was defined as the ratio of caspase 3/7 luminescence in treated cells compared to controls.

[2] = tested on: Cx43; assay: Cx43 expression in co-IP input, immunoblot, VTC-037 GSCs; format: cell-based, human; conditions: 50 μM, 24 h
Description: (§1) Cells were lysed in RIPA buffer (0.1% sodium dodecyl sulphate, 50 mM Tris pH 7.4, 150 mM NaCl, 1 mM EDTA, 1% Triton X-100, 1% deoxycholic acid, 200 μM Na3VO4, and 1 mM NaF) supplemented with Halt^TM Protease and Phosphatase Inhibitor Cocktail (Thermo Fisher). Lysates were sonicated prior to centrifugation at 4 °C for 20 min at 10,000 x g. Protein concentration was quantified using the DC protein assay (Bio-Rad Laboratories) and a standard curve obtained with increasing concentrations of Bovine Serum Albumin (BSA; Fisher Scientific). Protein samples were normalized to 20 μg total protein per lane and resolved by SDS-PAGE electrophoresis. 4X Bolt LDS sample buffer supplemented with 400 mM DTT (final concentration 1X Bolt LDS with 100 mM DTT) was added to samples before heating at 70 °C for 10 min. […] Membranes were imaged on a ChemiDoc™ imaging system, and analyzed with Image Lab software (Bio-Rad Laboratories). […]
Prior to lysis, cross-linking was completed by incubating cells in DTBP (dimethyl 3,3’-dithiobispropionimidate; 2 mM in PBS) for 30 min at 37 °C followed by a glycine quench (100 mM glycine in PBS) for 15 min at room temperature. […] Protein concentration was quantified using the DC protein assay and a standard curve obtained with increasing concentrations of BSA, and 500 μg of total protein was used per reaction for co-IP. […]

[3] = tested on: Cx43; assay: Cx43 protein expression, immunoblot, VTC-037 GSCs; format: cell-based, human; conditions: 50 μM, 24 h
Description: as §1, with “min. SDS-PAGE was run using NuPAGE Bis-Tris 4%–12% gradient gels (Thermo Fisher) with MES or MOPS running buffer according to manufacturer’s instructions. Spectra™ Multicolor Protein Ladder (Thermo Fisher) or Precision Plus Protein™ Kaleidoscope™ Prestained Protein Standards (Bio-Rad Laboratories) were included as protein ladders on the same gels.” for “min.”

[4] = tested on: Notch1; assay: Notch1 protein expression, immunoblot, VTC-037 GSCs; format: cell-based, human; conditions: 50 μM, 24 h
Description: as §1, with “min. SDS-PAGE was run using NuPAGE Bis-Tris 4%–12% gradient gels (Thermo Fisher) with MES or MOPS running buffer according to manufacturer’s instructions. Spectra™ Multicolor Protein Ladder (Thermo Fisher) or Precision Plus Protein™ Kaleidoscope™ Prestained Protein Standards (Bio-Rad Laboratories) were included as protein ladders on the same gels.” for “min.”

[5] = tested on: Notch1 mRNA; assay: Notch1 mRNA by RT-qPCR, VTC-037 GSCs; format: cell-based, human; conditions: 50 μM, 24 h
Description: RNA was extracted using the PureLink^TM RNA mini extraction kit (Thermo Fisher) and on-column DNA digestion was completed using PureLink^TM DNase according to the manufacturer’s instructions. RNA was reverse transcribed to generate cDNA using the iScript^TM Reverse Transcription SuperMix for RT-qPCR kit (Bio-Rad Laboratories). Real-time PCR was performed using the SYBR select Master Mix for CFX (Thermo Fisher) in hard-shell 96-well PCR plates (Bio-Rad Laboratories) on a CFX Connect Real Time System (Bio-Rad Laboratories). Primer sequences used were: hNOTCH1_Fwd: 5’-CGCACAAGGTGTCTTCCAG-3’; hNOTCH1_Rev: 5’-CGGCGTGTGAGTTGATGA-3’; hHES1_Fwd: 5’-GGCTGGAGAGGCGGCTAA-3’; hHES1_Rev: 5’-[…]-3’; hHEY1_Fwd: 5’-[…]-3’; hHEY1_Rev: 5’-[…]-3’.

[6] = tested on: Cx43; assay: Cx43 protein expression, immunoblot, VTC-001 GSCs; format: cell-based, human; conditions: 50 μM, 24 h
Description: as §1, with “min. SDS-PAGE was run using NuPAGE Bis-Tris 4%–12% gradient gels (Thermo Fisher) with MES or MOPS running buffer according to manufacturer’s instructions. Spectra™ Multicolor Protein Ladder (Thermo Fisher) or Precision Plus Protein™ Kaleidoscope™ Prestained Protein Standards (Bio-Rad Laboratories) were included as protein ladders on the same gels.” for “min.”

[7] = tested on: Cx43; conditions: prior work with JM2; ref [41]; cited from earlier work
Source text: Using JM2, a Cx43 mimetic peptide of Cx43 tubulin-binding domain, we confirm efficient and specific disruption of Cx43-microtubule interaction in GSCs together with decreased self-renewal abilities and enhanced killing of this cancer stem-like cell population, highlighting a novel tumorigenic role for Cx43 in GSCs, and GBM. Thermal shift assays reveal JM2 presents high affinity for both α- and β- tubulin. While chemotherapeutic drugs such as paclitaxel have been used to target microtubule functions as therapeutic agents, many of these therapeutic agents cause significant side-effects. M ...

VFFKGVKDRVKGRSD [JM2]
GSC viability with JM2 alone in combination experiment (MTS) ([1]; VTC-001 adherent GSCs, 100 μM): significantly decreased GSC viability
GSC survival (MTS) ([1]; VTC-001 adherent GSCs, 10, 50 or 100 μM): significantly decreased VTC-001, VTC-034, and VTC-037 GSC survival when cultured as adherent cells in a dose-dependent manner
Cx43 expression (co-IP input) [2]: does not affect Cx43 expression in GSCs
Cx43 protein expression [3]: without affecting Cx43 expression
Notch1 protein expression [4]: significantly decreased Notch1 expression at the protein level
Notch1 mRNA level [5]: not affected at the transcription level
Cx43 protein expression [6]: without affecting Cx43 expression
Cx43 delivery to the cell surface [7]: a loss of Cx43 delivery to the cell surface due to increased Cx43/tubulin complexing
